Patent publication US11840708B2, “Isogenic blood-brain barrier model” (Wisconsin Alumni Research Foundation, priority 2016, dated 2023)
Like-named read-outs stand apart in the source and are kept apart here.

Key:
[1] = Sodium fluorescein permeability across iPSC-derived BMEC monolayer on Transwell; format: in vitro ADME, human; conditions: human, 48 h
Method: (§1) Permeability Measurements—Sodium fluorescein (10 μM, 376 Daltons; Sigma) was utilized to determine the permeability of the iPSC-BMEC barrier. Following 48 h of monoculture or co-culture, fresh EC medium was added to the Transwell system, with EC medium containing sodium fluorescein added to the top chamber and EC medium lacking sodium fluorescein added to the bottom chamber. 150 uL aliquots were taken from the bottom chamber at 0, 15, 30, 45, and 60 min, and immediately replaced with pre-warmed EC medium. Permeability coefficients were calculated based on the cleared volume of fluorescein from the top chamber to the bottom chamber.

iPSC-derived BMECs = assay: as above; format: in vitro ADME, human; conditions: CS03iCTRn2-derived BMECs
Method: as §1

- Papp at 60 min, 10 μM ([1]; IMR90-4 iPSC-derived BMECs co-cultured with EZ-sphere-derived neurons and astrocytes (1:3), read-out: sodium fluorescein permeability Pe): 0.12 ± 0.001 ×10⁻⁶ cm/s
- Papp at 60 min, 10 μM ([1]; IMR90-4 iPSC-derived BMECs co-cultured with NPC-derived astrocytes and neurons, read-out: sodium fluorescein permeability Pe): 0.2 ± 0.1 ×10⁻⁶ cm/s
- Papp at 60 min, 10 μM ([1]; IMR90-4 iPSC-derived BMECs co-cultured with primary rat astrocytes, read-out: sodium fluorescein permeability Pe): 0.19 ± 0.01 ×10⁻⁶ cm/s
- Papp at 60 min, 10 μM ([1]; isogenic co-culture: CS03iCTRn2-derived BMECs with neurons:astrocytes (1:3), read-out: fluorescein permeability Pe): 0.062 ± 0.011 ×10⁻⁶ cm/s
- Papp at 60 min, 10 μM ([1]; monocultured CS03iCTRn2-derived BMECs, read-out: fluorescein permeability Pe): 0.81 ± 0.09 ×10⁻⁶ cm/s
- Papp at 60 min, 10 μM ([1]; monocultured IMR90-4 iPSC-derived BMECs, read-out: sodium fluorescein permeability Pe): 0.48 ± 0.03 ×10⁻⁶ cm/s
- decrease of fluorescein permeability, isogenic co-culture compared to monoculture (iPSC-derived BMECs): 13 fold
Structure (SMILES): O=C1OC2(c3ccc(O)cc3Oc3cc(O)ccc32)c2ccccc21 [sodium fluorescein, Sodium fluorescein]
